Source: PMC10049026, “In Silico Binding of 2-Aminocyclobutanones to SARS-CoV-2 Nsp13 Helicase and Demonstration of Antiviral Activity” (International Journal of Molecular Sciences, 2023)
Where two headings read alike, the source gives them in different places.

Columns and labels:
[1] = test system: Delta Variant hCoV-19/USA/MD-HP05285/2021 (Lineage B.1.617.2); test: microbe, parasite or virus in culture; format: cell-based, SARS-CoV-2; conditions: for IC50: Severe acute respiratory syndrome coronavirus 2
[2] = test system: Omicron Variant hCoV-19/USA/MD-HP20874/2021 (Lineage B.1.1.529); test: microbe, parasite or virus in culture; format: cell-based, SARS-CoV-2; conditions: Severe acute respiratory syndrome coronavirus 2

Cc1ccc(S(=O)(=O)N[C@@H](Cc2c[nH]c3ccccc23)C(=O)NC2CCC2=O)cc1 (stereo partly drawn) [Compound 4, (2S)-3-(1H-Indol-3-yl)-2-((4-methylphenyl)sulfonamido)-N-(2-oxocyclobutyl)propanamide]
difference in IC50, variants vs wild-type [1]: 10 to 20 fold | IC50 ([1]; read-out: IC50, Delta VOC (Figure 5)): 943 ± 526 nM | IC50 ([1]; read-out: IC50 Values For inhibition of SARS-CoV-2 Mediated Cell Death, Delta): 220 nM | IC50 ([2]; read-out: IC50, Omicron VOC (Figure 5)): 2590 ± 1280 nM | IC50 ([2]; read-out: IC50 Values For inhibition of SARS-CoV-2 Mediated Cell Death, Omicron): 1580 nM
